Experimental data reported in paper PMC7934871 (JCI Insight, 2021).

Key:
STAT5 = assay: Immunoprecipitation and Western blotting, STAT5; type: binding, human; settings: immunoprecipitation, Western blotting, U251 cells
Text: Figure 2 PS-acet.-STAT3-peptide specifically binds STAT3 in the nucleus. (A) Penetration of PS-acet.-STAT3 peptide and its colocalization with STAT3 protein in U251 cells are confirmed by confocal microscopy. Scale bars: 50 μm. Insets: original magnification, ×40. (B) PS-acet.-STAT3 peptide specifically binds to STAT3 protein, not STAT1 and STAT5 proteins, shown in U251 cells by immunoprecipitation followed by Western blotting (left panel). Expression of total STAT1, STAT3, and STAT5 was confirmed by Western blotting in U251 cells (input protein level, right panel).
Whole cell lysates or tissue homogenates were prepared by using RIPA lysis buffer (50 mM Tris at pH 7.4, 150 mM NaCl, 1 mM EDTA, 0.5% NP-40, 1 mM NaF, 15% glycerol, and 20 mM β-glycerophosphate). […] Protein amounts were determined by BCA using a Thermo Fisher Scientific kit. […] The protein levels for STAT1 (sc-346, E-23), STAT3 (sc-482, C-20), STAT5 (sc-74442, A-9), Crm1 (exportin 1) (sc-5595, H-300), CAS (exportin 2) (sc-271537, H-2), exportin 5 (sc-66885, H-300), and exportin 7 (sc-98639, H-82) were determined using antibodies from Santa Cruz Biotechnology Inc. Anti–exportin 3 (exportin T, 630622, LOS1 05-1525), anti–exportin 4 (3499-1), and anti–exportin 6 (11408-1-AP) were from MilliporeSigma, Epitomics, and Proteintech, respectively. […]

HCT116 xenograft tumors = assay: HCT116 xenograft in NSG mice, peritumoral treatment; type: in vivo, mouse; settings: HCT116 s.c. in NSG mice, 1 mg/kg peritumoral every day, n = 4
Protocol: Mouse care and experimental procedures were performed under pathogen-free conditions in accordance with established institutional guidance and approved IACUC protocols from Research Animal Care Committee of the City of Hope. For s.c. tumor challenge, 5 × 10^6 HCT116 cells were injected into NSG mice from The Jackson Laboratory or animal resource core facility at the City of Hope. After tumors reached an average size of 80~100 mm^3, mice were locally or intravenously treated with 1 mg/kg of PO- or PS-peptides (Anaspec) every day or every other day. Control animals were treated with the equal volume of HBSS (Invitrogen, Thermo Fisher Scientific). Tumor growth was measured by a digital caliper every other day. […] Lungs were then analyzed for immune responses by immunostaining followed by confocal imaging. […] Tumor growth was measured by a digital caliper every other day. […]
(B) PS-acet.-STAT3 peptide downregulates STAT3 phosphorylation, assessed by Western blotting using tumor homogenates prepared from tumors shown in A.
(C) mRNA levels for CASP9, BIRC5 and BCL2L1 in the same tumor tissues described above were assessed by qRT-PCR. […]
(D) Treatments with PS-acet.-STAT3 peptide induced cell death, indicated by H&E staining (upper panel). […] Right panels represent quantification of Ki-67 protein levels and mean of vessel diameter (data include 5 fields of view per group). […]

For “PDIPKEEAFGK685(Ac)YCRPESQEHPC-linker-T*C*C*A*T*G*A*G*C*T*T*C*C*T*G*A*T*G*C*T [PS-acet.-STAT3 peptide]”, the “binding to STAT5 protein” value (STAT5) was “not” and the tumor growth (HCT116 xenograft tumors) was “antitumor effects”.
